Series [1] relates to human liver cancer cells (HepG2). The series is described as follows: MTT antiproliferative assay, HepG2. Format: cell-based. The protocol:
(§1) Human lung cancer cell (A549,), human umbilical vein endothelial cells (HUVECs,), human colon cancer cell lines (HCT-15), human breast cancer cells (MCF-7), human liver cancer cells (HepG2), human pancreatic cancer cells (BxPC-3), and human hepatic cell line (L-02) were obtained from the Sichuan University. A549, HUVECs, and L-02 were cultured in DMEM medium (high glucose, HyClone, GE Healthcare, Sydney, Australia). Human colon cancer cell lines HCT-15, human pancreatic cancer cells […] BxPC-3 were cultured in RPMI-1640. Human breast cancer cells MCF-7 and human liver cancer cells HepG2 were cultured in MEM medium. All the mediums, including 10% fetal bovine serum (FBS, HyClone, GE Healthcare, Sydney, Australia) and 1% ampicillin/streptomycin, were used to culture the above cells at 37 °C in a humidified atmosphere (5% CO2 and 95% air).
(§2) The antiproliferative activity of the title compounds was determined using the MTT (3-(4,5-dimethylthiazol-2-yl)-2,5-diphenyltetrazolium bromide, Sigma-Aldrich, Saint Louis, MO, USA) assay on different cells. Cells lines were seeded into 96-well plates at a density of 2000 to 6000 cells/well. DMSO was used to dissolve the test compounds, and TET was used as a positive control. After 24 h, the test compounds were added at different concentrations (0.625, 1.25, 2.5, 5, 10, and 20 μM) and incubated at 37 °C for 72 h. MTT was added to each well at a final concentration of 0.5 mg/mL and incubated at 37 °C for 4 h. Then, 150 μL of DMSO was added to each well to dissolve the formazan crystals. The absorbance was measured at 570 nm by a microplate reader (ELX800UV, Bio-Tek, Windoski, VT, USA). All measurements were repeated at least three times under the same conditions. Graphpad Prism 8.0 was used to calculate the IC50 values.
On the technique in general: Tetrazolium dyes change colour on reduction, which living cells bring about.

Series [2] has as its system human umbilical vein endothelial cells (HUVEC). The series is described as follows: MTT antiproliferative assay, HUVEC. It is filed as cell-based. Conditions: 72 h. The protocol:
as §1, §2

Series [3] relates to HUVECs. In words: Tube formation assay on Matrigel. Format: cell-based, human. Conditions: HUVEC on Matrigel, 5 μM, 8 h. The protocol:
Briefly, a 96-well plate was pre-coated with 50 μL Matrigel per well and incubated at 37 °C for 30 min. Then, 100 μL of HUVECs suspension (2 × 10^4) were added to each well. The cells were cultured with 1.25, 2.5, and 5 μM of 16 for 8 h. Subsequently, the tube formation was observed, randomly selected, and recorded by an inverted microscope.

Series [4] deals with Bax/Bcl-2. In words: Western blot, Bax/Bcl-2 in HCT-15 cells. Format: cell-based, human. Conditions: HCT-15, only at 5 μM, p < 0.05. As to the method: The protein levels in HCT-15 cells were evaluated via Western blot analysis. The cells were cultured in dishes (10^7 cells per dish) and incubated overnight at 37 °C, 0.625, 1.25, 2.5, and 5 μM of 16 was added in triplicate after 24 h of incubation. Then, the cells were harvested and lysed in Laemmli buffer (glycerol, 1M TRIS pH 6.8, 1% SDS, MQ H2O and 20% β-mercaptoethanol). The samples were boiled for 5 min at 95 °C, and the protein content was determined using a BCA kit. Equal amounts of 30 μg of sample were placed on a Tris/HCl gel and separated by SDS-PAGE electrophoresis. Then, the samples were transferred to a PVDF membrane (Milibo, Co., Ltd., Billyka, MA, USA) and blocked with 5% skimmed milk powder for 2 h. Diluted primary antibodies Bcl-2 (1:3000), Bax (1:10,000), caspase-3 (l:2000), p62 (1:1000), Beclin1 (1:1000), LC3 (1:2000), and β-actin (1:1000) were incubated overnight at 4 °C, followed by a horseradish peroxidase-conjugated goat anti-rabbit IgG secondary antibody (ProteinTech, China) for 2 h at room temperature. Then, immunoreactivity was developed with diaminobenzidine solution, and scanned and recorded by a gel imaging system (G:BOX Chemi XL1.4, Frederick, MD, USA).

The nature of series [5]: Aqueous solubility determination by HPLC. It is filed as physicochemical. Conditions: neutral water, vs TET. As to the method:
Briefly, each tested compound (10 mg) was dissolved in 10 mL of CH3OH, and the standard solution (0.5 mL) was used to determine the wavelength of maximum absorbance by HPLC. The solution was diluted as necessary, and the solubility was determined by linear regression with R^2 > 0.999. Each tested compound (5 mg) was ultrasound dissolved in 3 mL of pure water for 1 h at room temperature, and the mixture was then […] at 3000 rpm for 15 min. The saturated supernatants were determined by HPLC at the wavelength of the maximum absorption, and the absorbances were obtained. The solubility was calculated according to the standard curve.

The test system of series [6] is HCT-15 cells. The series is described as follows: Transwell invasion assay. Format: cell-based, human. Conditions: HCT-15, transwell, 5 and 10 μM, 20 h. The protocol: The cell motility inhibitory effect of 16 on HCT-15 cells was evaluated by invasion assay. Briefly, cells were harvested and resuspended in serum-free medium that contained 0.625, 1.25, 2.5, 5, and 10 μM of 16, and were seeded into the upper wells of a transwell chamber (Millicell, […] pore size, 12-mm diameter Millipore) coated with 50 μL of Matrigel (1:3 dilution in serum-free medium, Corning/BD Biosciences) at a density of 2 × 10^5 cells/mL. Meanwhile, 600 μL medium containing 10% FBS and corresponding samples were added into the lower chambers. Then, 20 h later, the invading cells were fixed with 4% paraformaldehyde and stained with 0.2% crystal violet for 30 min. Afterwards, the chambers were washed twice with PBS and left to dry. Cells which had migrated to the lower chamber of the transwell were photographed using a digital camera with an inverted microscope (Nikon ECLIPSE TE2000-U, Tokyo, Japan), and the crystal violet positive cells were counted.

In series [7] the test system is human lung cancer cells (A549). The series is described as follows: MTT antiproliferative assay, A549. Format: cell-based. The protocol:
as §1, §2

Series [8] deals with human colon cancer cells (HCT-15). The series is described as follows: MTT antiproliferative assay, HCT-15. It is filed as cell-based. The protocol: as §1, §2
Series [9] has as its system human breast cancer cells (MCF-7). In words: MTT antiproliferative assay, MCF-7. It is filed as cell-based. As to the method:
as §1, §2

Series [10] has as its system HCT-15 cells. The series is described as follows: Colony formation assay. Conditions: HCT-15, 0.625 μM, 10 d. Format: cell-based, human. The protocol:
HCT-15 cells were diluted in 2 mL of culture medium and plated in six-well plates at 37 °C in 5% CO2. After an overnight incubation, compound 16 (0.625, 1.25, 2.5, 5, and 10 μM) was added, and the cells were cultured for 10 d. Afterwards, the medium was replaced. The cells were washed by cold PBS and fixed with 4% paraformaldehyde. Finally, the cell colonies were stained with a 1% crystal violet solution for 20 min. The plates were recorded, and the colonies were counted digitally using ImageJ software with customized macros.

Molecules are shown by their SMILES. “And” between values parts separate entries of the source, which are not always exact repeats. Equal entries are not always repeated.

Take `COc1cc(NC(=O)[C@@H]2CCCN2)c2cc1Oc1ccc(cc1)C[C@H]1c3cc(c(OC)cc3CCN1C)Oc1c(OC)c(OC)cc3c1[C@H](C2)N(C)CC3` [Compound 16, 14-N-(L-proline)-tetrandrine]: the IC50 (commonly the concentration at which inhibition is half-maximal) in [1] (72 h) was 1.05 ± 0.03 µM; in series [1] (Homo sapiens, HepG2, 72 h), below 1.5 µM; in series [2] it was 1.48 ± 0.01 µM; in [7] (72 h), 1.19 ± 0.01 µM; in series [7] (Homo sapiens, A549, 72 h), below 1.5 µM; in series [8] (Homo sapiens, MTT, 72 h, HCT-15), 0.57 ± 0.03 µM. Moreover, the IC50 in [9] (72 h) is 1.46 ± 0.13 µM; in [9] (Homo sapiens, MCF7, 72 h) it was below 1.5 µM. The Tube formation entry in series [3] is “almost no tube structure”. The “Ratio of Bax/Bcl-2” value in series [4] is listed as “enhanced”. Besides, the “Increase of aqueous solubility compared to TET” value in series [5] is > 5 fold and 5 fold. In addition, the Invaded cells result in [6] is recorded as “almost no cancer cells were observed”. Further, the “Improvement of antiproliferative activity compared with TET” value in series [8] (HCT-15 cells, vs TET (IC50 = 6.12 μM)) was “higher than 10 fold”. The Colony formation entry in [10] was “very few colonies”.

The record behind these values is article PMC9268013, “Design, Synthesis, and Biological Evaluation of N14-Amino Acid-Substituted Tetrandrine Derivatives as Potential Antitumor Agents against Human Colorectal Cancer” (Molecules, 2022).
